# Experimental data taken from patent US12576047B2, “Telomerase activating compounds for use in fertility and related applications” (Neuromagen Pharma Ltd, priority 2017, dated 2026).
# Legend:
# mouse ovary = assay: Hematoxylin-eosin histology of mouse ovary; format: in vivo; details: for ovary histology: 6 mg/Kg single dose at Di-estrus stage; for ovary histology / ovary histology (follicles, granulosa cells): 12 hours; for ovary histology (follicles, granulosa cells): 6 mg/Kg single dose at met-estrus stage; for ovary histology (corpus luteum): 6 mg/Kg single dose at pro-estrus and estrus stages, 12 hrs
# From the text: The ovaries were weighted; one was taken for protein extraction for measuring telomerase activity by TRAP assay, and the other one for the histological examination using hematoxylin-eosin staining of the ovary and its follicles.
# The mice ovaries were removed and fixed with 4% paraformaldehyde overnight, dehydrated in increasing ethanol concentrations to xylene, and embedded in paraffin. A rotary microtome was used to produce 5 μm sections, which were mounted on Superfrost plus slides. The sections were dried and heated at 37° C. overnight and stored in dry place. Paraffin-embedded sections were deparaffinized in xylene and rehydrated in decreasing concentrations of ethanol. Then the sections stained with hematoxylin-eosin or subjected to immunochemical and Immunofluorescent assays [Liani-Leibson, K., I. Har-Vardi, and E. Priel, Inhibition of topoisomerase I by anti-cancer drug altered the endometrial cyclicity and receptivity. Curr Mol Med, 2014. 14(1): p. 141-50].
# FSH = FSH expression by RT-PCR in pituitary gland cells; format: cell-based, mouse; details: 50 nM
# Procedure: FIGS. 29A, 29B, 29C and 29D: The embodied compounds affect the expression of gonadotropin hormones in pituitary gland cells. Cells (L T2) derived from the mouse pituitary gland were assessed for their secretion of LH and FSH at 6 (FIGS. 29A and 29B) and 12 hours (FIGS. 29C and 29D) following treatment with the indicated embodied compounds (50 nM). FSH and LH expression was determined by RT-PCR, and quantified from 5 different experiments, as assessed for significance, using the t test, one way ANOVA.
# ICR mice = assay: Sperm count from the epididymis, with or without X-ray radiation; format: in vivo, mouse
# Procedure: Toward this end, ICR mice (3 months old) were injected with 6 mg/kg of Compound 79, Compound 68 or Compound 70, or mice were subjected to X-ray radiation (2.5 Gy) followed by immediately injection of the respective compounds. Control mice were untreated or vehicle treated with or without exposure to X-ray radiation. […] Testes were also taken for immunohistochemical and immunofluorescence analysis with various spermatogenesis markers. Epididymis was also taken for sperm count.
# sperm = assay: Sperm head morphology after X-ray radiation; format: in vivo, mouse; details: X-ray 2.5 Gy, single S.C. injection 6 mg/kg, 12 hours
# Procedure: Three-month old mice were irradiated with X-ray (2.5 Gy) and treated with a single S.C. injection of 6 mg/kg of compound 68 or 70. Mice were sacrificed 12 hours later and sperm were removed from the epididymis and stained with eosin. The number of morphologically defective sperm (head morphology) were quantified and presented as a percentage value of the total sperm count (N=6 mice per group) (FIG. 26A). FIG. 26B provides a light micrograph showing healthy and defective sperm head morphology observed. The arrows labeled 1 and 2 point to defective sperm head morphology, and the arrows labeled 3 and 4 point to healthy sperm head morphology
# mouse testes = assay: H&E histology of testes after X-ray radiation; format: in vivo; details: X-ray 2.5 Gy then injection, 12 hrs
# Procedure: (§1) Toward this end, ICR mice (3 months old) were injected with 6 mg/kg of Compound 79, Compound 68 or Compound 70, or mice were subjected to X-ray radiation (2.5 Gy) followed by immediately injection of the respective compounds. Control mice were untreated or vehicle treated with or without exposure to X-ray radiation. The testes were removed 12 hrs after treatments and subjected to protein extracts or total RNA preparations for the examination of telomerase activity by TRAP assay, telomerase expression by Western blot and real time PCR. Testes were also taken for immunohistochemical and immunofluorescence analysis with various spermatogenesis markers. Epididymis was also taken for sperm count.
# female ICR mice = assay: Estrous cycle stage by vaginal smears; format: in vivo, mouse
# Procedure: Female ICR mice at least 3 months old were administered embodied compounds of this invention (Compound 79 and Compound 68) (6 mg/Kg) or DMSO alone (0.5%) by subcutaneous administration. Vaginal smears were taken at baseline and at 12 hours following the administration to determine estrous cycle stage and mice were then sacrificed.
# CREM = CREM expression in X-ray irradiated testis; format: in vivo, mouse; details: X-ray 2.5 Gy then injection, 12 hrs
# Procedure: as §1
# [1] = test system: Steroidogenic acute regulatory protein (StAr); assay: StAr relative mRNA levels by qRT-PCR in granulosa cells; format: cell-based, rat; details: 50 nM for 6 hours
# Procedure: (§2) Immortalized rat granulosa cells expressing FSH receptor were treated with either pregnant mare serum gonadotropin (PMSG), or the indicated compounds, or both for 6 hours. Protein extracts prepared from these cells served for telomerase activity measurement using a telomere repeat amplification protocol (TRAP) assay.
# (§3) Briefly, protein extract incubated with oligonucleotide, which serves as a template for telomerase (TS), for 45 minutes at 30° C. followed by PCR with reverse primer (ACX) and internal control. PCR products were separated on 4.5% agarose gel. RNA extracts were used for cDNA synthesis and quantitative real time PCR with specific primers to Telomerase reverse transcriptase (TERT), Steroidogenic acute regulatory protein (StAr) and β-actin as a reference gene. To measure progesterone levels secreted by the cells, granulosa cells were cultured with or without 1 IU/mL PMSG and DMSO, Compound 79 50 nM or compound 70 50 nM in the presence of 100 nM dexamethasone. After 24 hours progesterone levels cell-culture medium were determined by radioimmunoassay (RIA). For cell proliferation measurement, 1×10^5 cells were seeded in a 96 wells plate with 1 IU/mL PMSG and DMSO, Compound 79 50 nM or Compound 70 50 nM. After 24 hours cells viability was measured by XTT proliferation assay.
# telomerase = molecular target: T1, telomerase (Rattus norvegicus, UniProt Q673L6); assay: TRAP assay of telomerase activity in granulosa cells; format: cell-based; details: 50 nM and 200 nM for 6 hours
# T1 construct: Protein extracts prepared from these cells served for telomerase activity measurement; endogenous in cells; host or cells: immortalized rat granulosa cells expressing FSH receptor
# Procedure: as §2, §3
# [2] = test system: Telomerase reverse transcriptase (TERT); assay: TERT relative mRNA levels by qRT-PCR in granulosa cells; format: cell-based, rat; details: 50 nM and 200 nM for 6 hours
# Procedure: as §2, §3
# female mice = assay: Progesterone levels in mouse serum; format: in vivo; details: compared to DMSO or UT, 12 hrs post treatment, P, E, and M stages
# Procedure: Blood samples were taken from the sacrificed mouse and following centrifugation (3800 rpm, 10 min) the serum was sent to the clinical endocrinology laboratory (Soroka University Medical Center, Beer-Sheva, Israel) for determination of progesterone levels.
# [3] = injected at the diestrus or metestrus stages
# [4] = single dose injected in the proestrus or estrus stages
# T1 sequence (Q673L6 whole entry): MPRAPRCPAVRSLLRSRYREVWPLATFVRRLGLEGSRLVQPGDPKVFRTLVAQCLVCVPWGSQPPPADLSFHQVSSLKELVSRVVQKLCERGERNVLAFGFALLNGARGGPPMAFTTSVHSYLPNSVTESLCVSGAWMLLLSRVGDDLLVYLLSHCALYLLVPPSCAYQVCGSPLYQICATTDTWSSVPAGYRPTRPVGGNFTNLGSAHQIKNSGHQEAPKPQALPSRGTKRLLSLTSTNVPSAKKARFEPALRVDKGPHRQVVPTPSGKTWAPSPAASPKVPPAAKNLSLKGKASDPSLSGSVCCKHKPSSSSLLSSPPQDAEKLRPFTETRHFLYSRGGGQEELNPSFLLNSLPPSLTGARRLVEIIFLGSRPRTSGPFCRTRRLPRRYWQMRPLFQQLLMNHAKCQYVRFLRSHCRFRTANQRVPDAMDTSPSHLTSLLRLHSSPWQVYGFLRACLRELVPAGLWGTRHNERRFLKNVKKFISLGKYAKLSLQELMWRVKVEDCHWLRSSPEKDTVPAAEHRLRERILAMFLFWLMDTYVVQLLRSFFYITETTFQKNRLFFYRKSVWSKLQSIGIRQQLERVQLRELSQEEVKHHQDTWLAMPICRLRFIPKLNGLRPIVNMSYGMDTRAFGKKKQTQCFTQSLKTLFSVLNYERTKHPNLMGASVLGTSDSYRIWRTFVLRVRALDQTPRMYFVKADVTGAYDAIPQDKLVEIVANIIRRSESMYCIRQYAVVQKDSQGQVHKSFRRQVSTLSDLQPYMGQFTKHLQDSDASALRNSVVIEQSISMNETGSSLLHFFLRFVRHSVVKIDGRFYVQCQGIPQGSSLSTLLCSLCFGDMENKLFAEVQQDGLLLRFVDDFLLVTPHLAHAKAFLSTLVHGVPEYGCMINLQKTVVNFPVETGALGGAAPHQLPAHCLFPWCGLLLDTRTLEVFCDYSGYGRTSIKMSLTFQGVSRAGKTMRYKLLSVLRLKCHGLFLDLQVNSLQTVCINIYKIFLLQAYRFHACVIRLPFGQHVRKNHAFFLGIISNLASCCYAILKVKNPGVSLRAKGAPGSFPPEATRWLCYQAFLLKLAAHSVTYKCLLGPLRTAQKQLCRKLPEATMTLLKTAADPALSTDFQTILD
SMILES,ovary histology (mouse ovary),"ovary histology (follicles, granulosa cells) (mouse ovary)",ovary histology (corpus luteum) (mouse ovary),"FSH expression (FSH; 6 hours, vs untreated)","sperm count (ICR mice; irradiated mice, 9 and 30 days post irradiation)","sperm cells number from the epididymis (ICR mice; non-irradiated mice, 12 hrs post treatment, compared to DMSO)",number of defective sperm cells (head morphology) (sperm),morphology of testicular tissue (H&E) (mouse testes),estrous cycle stage 12 hrs post treatment (female ICR mice; [3]),estrous cycle stage 12 hrs post treatment (female ICR mice; [4]),CREM expression in testis (CREM),FSH expression (FSH; 12 hours),expression of StAr [1],telomerase activity (TRAP) (telomerase),TERT relative mRNA levels [2],increase in the secretion of progesterone (female mice)
CC(c1cc(Br)c(O)c(Br)c1)(c1cc(Br)c(O)c(Br)c1)c1cc(Br)c(O)c(Br)c1 [Compound 68],a plurality of corpus luteum (CL),more developed follicles (white arrow) and plurality of layers of granulosa cells (GC) around the oocytes,more corpus luteum (CL) than in the control group,decreased FSH expression relative to untreated samples,increased sperm count at 9 and 30 days post irradiation,a significant increase,reduction in the number of defective sperm cells,protected the spermatogonia cells layer from the damaging effects of X-ray and the morphology of the testicular tissue remained intact,No changes in the estrous cycle stage,in the metestrus stage,restored the expression of the spermatogenesis markers,–,–,–,–,–
CCOCc1cc(C(C)(c2cc(COCC)c(O)c(COCC)c2)c2cc(COCC)c(O)c(COCC)c2)cc(COCC)c1O [Compound 79],multiple layers of granulosa cells (GC) around the oocytes,more developed follicles (white arrow) and plurality of layers of granulosa cells (GC) around the oocytes,more corpus luteum (CL) than in the control group,–,–,–,–,–,No changes in the estrous cycle stage,in the metestrus stage,–,decreased FSH levels,increased expression of StAr,increased expression in a dose-dependent fashion,increased expression in a dose-dependent fashion,up to 5 folds
